Data set [1] addresses T1, native bovine brain inositol monophosphatase (Bos taurus, UniProt P20456).
T1 construct: both the native and recombinant bovine enzymes; from tissue; host or cells: bovine brain
T1 sequence (P20456 1-277): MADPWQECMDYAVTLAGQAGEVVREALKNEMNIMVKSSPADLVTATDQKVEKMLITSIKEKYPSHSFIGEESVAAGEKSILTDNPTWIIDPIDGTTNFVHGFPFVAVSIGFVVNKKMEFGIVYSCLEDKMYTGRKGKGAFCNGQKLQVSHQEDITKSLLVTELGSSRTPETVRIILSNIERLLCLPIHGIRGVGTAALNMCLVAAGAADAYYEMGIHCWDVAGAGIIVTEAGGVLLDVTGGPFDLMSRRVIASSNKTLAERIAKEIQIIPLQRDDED
To be noted: bovine brain enzyme, as reported in Gee et al., but confirmed here, cited from earlier work.

Data set [2] deals with T2, recombinant human brain inositol monophosphatase (IMP), SEQ. ID NO. 2, expressed in E. coli BL21-DE3 (Homo sapiens, UniProt P29218).
T2 sequence (P29218 1-277): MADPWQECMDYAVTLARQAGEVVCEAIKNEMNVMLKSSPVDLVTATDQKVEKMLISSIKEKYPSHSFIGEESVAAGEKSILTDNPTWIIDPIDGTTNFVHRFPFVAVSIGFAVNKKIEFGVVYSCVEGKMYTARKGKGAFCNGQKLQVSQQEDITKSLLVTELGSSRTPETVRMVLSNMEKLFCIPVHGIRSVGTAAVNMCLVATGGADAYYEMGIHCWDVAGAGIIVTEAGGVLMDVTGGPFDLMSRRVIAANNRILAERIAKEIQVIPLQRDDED
Put plainly: Kinetics and inhibition of recombinant human inositol monophosphatase ([14C]inositol release from DL-Ins(1)P).

Data set [3] concerns the target T3, bovine inositol monophosphatase (bovine enzyme, source not specified) (Bos taurus, UniProt P20456).
T3 sequence (P20456 1-277): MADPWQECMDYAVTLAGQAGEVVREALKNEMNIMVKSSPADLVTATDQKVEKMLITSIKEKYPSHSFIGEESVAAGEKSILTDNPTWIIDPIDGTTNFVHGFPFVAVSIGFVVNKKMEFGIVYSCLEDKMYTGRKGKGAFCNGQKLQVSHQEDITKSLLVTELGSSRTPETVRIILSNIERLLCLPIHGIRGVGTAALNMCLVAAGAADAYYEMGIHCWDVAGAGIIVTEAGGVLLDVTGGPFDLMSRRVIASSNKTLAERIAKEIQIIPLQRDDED
Put plainly: Inhibition of bovine inositol monophosphatase (parallel comparison). In kind it is biochemical. Conditions: parallel experiment.

Substrate in data set [4]: O=P(O)(O)O[C@@H]1[C@H](O)[C@H](O)[C@@H](O)[C@H](O)[C@H]1O
The experiment in a line: purified protein, by the assay type. Conditions: mean ± S.E.M. (n=3).

As a reminder, the Km is the concentration of substrate that gives half-maximal velocity.

Where two headings read alike, the source gives them in different places.

As to `O=P(O)(O)O[C@@H]1[C@H](O)[C@H](O)[C@@H](O)[C@H](O)[C@H]1O` (relative stereo) [DL-Ins(1)P], the Vmax in data set [1] (substrate DL-Ins(1)P) was 13.3 ± 0.9 μmol/min per mg of protein. Besides, the Km in data set [1] (read-out: Km for DL-Ins(1)P) was 160 ± 20 µM.

As to `O=P(O)(O)O[C@H]1CC[C@H](O)C[C@H]1O` [1S-phosphoryloxy-2R,4S-dihydroxycyclohexane], the Ki in data set [2] was determined as 2.7 µM; in data set [3] (competitive inhibitor, read-out: apparent Ki), 1.1 µM.

Take `O=P(O)(O)O` [Pi]: the Ki in data set [2] (read-out: Ki (Pi), competitive inhibition, recombinant human IMP) was determined as 140 µM; in data set [3] (read-out: Ki (Pi)), 500 µM.

B1: recombinant human brain inositol monophosphatase (IMP), SEQ. ID NO. 2, expressed in E. coli BL21-DE3 (Homo sapiens) (protein)
chain: MADPWQECMDYAVTLARQAGEVVCEAIKNEMNVMLKSSPVDLVTATDQKVEKMLISSIKEKYPSHSFIGEESVAAGEKSILTDNPTWIIDPIDGTTNFVHRFPFVAVSIGFAVNKKIEFGVVYSCVEGKMYTARKGKGAFCNGQKLQVSQQEDITKSLLVTELGSSRTPETVRMVLSNMEKLFCIPVHGIRSVGTAAVNMCLVATGGADAYYEMGIHCWDVAGAGIIVTEAGGVLMDVTGGPFDLMSRRVIAANNRILAERIAKEIQVIPLQRDDED
In the case of B1, the Km in data set [4] (other: human recombinant enzyme, 37° C.) was 75 ± 3 µM.

B2: native human platelet-derived inositol monophosphatase (Homo sapiens) (protein)
chain: MADPWQECMDYAVTLARQAGEVVCEAIKNEMNVMLKSSPVDLVTATDQKVEKMLISSIKEKYPSHSFIGEESVAAGEKSILTDNPTWIIDPIDGTTNFVHRFPFVAVSIGFAVNKKIEFGVVYSCVEGKMYTARKGKGAFCNGQKLQVSQQEDITKSLLVTELGSSRTPETVRMVLSNMEKLFCIPVHGIRSVGTAAVNMCLVATGGADAYYEMGIHCWDVAGAGIIVTEAGGVLMDVTGGPFDLMSRRVIAANNRILAERIAKEIQVIPLQRDDED
As for B2, the Km in data set [4] (other: human platelet enzyme, 37.0 °C) was 108 ± 3 µM.

B3: recombinant bovine inositol monophosphatase (Bos taurus) (protein)
chain: MADPWQECMDYAVTLAGQAGEVVREALKNEMNIMVKSSPADLVTATDQKVEKMLITSIKEKYPSHSFIGEESVAAGEKSILTDNPTWIIDPIDGTTNFVHGFPFVAVSIGFVVNKKMEFGIVYSCLEDKMYTGRKGKGAFCNGQKLQVSHQEDITKSLLVTELGSSRTPETVRIILSNIERLLCLPIHGIRGVGTAALNMCLVAAGAADAYYEMGIHCWDVAGAGIIVTEAGGVLLDVTGGPFDLMSRRVIASSNKTLAERIAKEIQIIPLQRDDED
For the molecule B3, the Km in data set [4] (other: bovine recombinant enzyme, 37.0 °C) was 120 ± 7 µM.

Values taken from patent publication US5710015A, “cDNA cloning of inositol monophosphatase” (Merck, Sharp & Dohme, Ltd., priority 1992, dated 1998).
